Test results: BindingDB's records for patent US11472811 (BEIGENE, LTD., 2022)

Target: Adenosine receptor A2a (Homo sapiens, UniProt P29274)
Assay: Luciferase Reporter Assay
Method: HEK293-A2AR-luc2p/CRE/Hygro cells were seeded at a density of 5,000 cells/well in DMEM with 1% FBS and 1 U/mL adenosine deaminase (ADA) (Sigma). After 18 h, the cells were treated with 3 nM CGS21680 plus a series dilution of A2AR antagonist, the compounds disclosed herein at the concentration of 0.1 10000 nM, prepared in DMEM with 1% FBS. After 5 h incubation, the luciferase activity in cells were measured using the Bright-Glo Luciferase Assay System (Promega) according to manufacturer's instructions. The luminescence signal was measured using a PHERAstar FS plate reader (BMG Labtech). […] Maximal luminescence intensity was determined in the presence of 3 nM CGS21680 and was set as 100%. The IC50 value was calculated from a dose dependent inhibition curve across the range of compound concentrations.

Adenosine receptor A2a, sequence (P29274 whole entry): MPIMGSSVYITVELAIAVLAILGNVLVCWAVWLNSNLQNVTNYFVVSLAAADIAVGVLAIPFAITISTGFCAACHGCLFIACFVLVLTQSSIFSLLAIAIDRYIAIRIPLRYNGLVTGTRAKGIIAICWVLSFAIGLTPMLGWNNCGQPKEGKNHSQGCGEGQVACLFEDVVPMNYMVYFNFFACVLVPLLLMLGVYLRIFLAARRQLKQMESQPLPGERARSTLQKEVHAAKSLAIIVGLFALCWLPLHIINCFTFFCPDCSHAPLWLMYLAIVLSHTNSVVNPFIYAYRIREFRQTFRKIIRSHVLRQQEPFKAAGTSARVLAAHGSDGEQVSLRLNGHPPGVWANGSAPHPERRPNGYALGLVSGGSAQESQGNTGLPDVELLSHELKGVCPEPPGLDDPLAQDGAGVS

IC50: 194 nM
Compound: C[C@@](C(=O)O)(c1ccccc1)n1ncc2c1nc(N)n1nc(-c3ccco3)nc21 [US11472811, Example Intermediate-Ia]
